Assay results taken from patent publication US20240208968A1, “ALPHA V BETA 6 AND ALPHA V BETA 1 INTEGRIN INHIBITORS AND USES THEREOF” (DiCE Molecules SV, Inc., priority 2021, published 2024).

Legend:
αvβ6 = αvβ6 (Homo sapiens, UniProt P06756+P18564); assay: Solid Phase Integrin αvβ6 Assay; type: binding
Outline: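 Plates coated with 1 μg/mL recombinant TGFb1-LAP; compounds and αvβ6 (0.2 μg/mL diluted stock) incubated 1 h at room temperature in 2% BSA/TBST with 1 mM MnCl2. Bound integrin detected with streptavidin-HRP and TMB; IC50 from four-parameter logistic fits.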

αvβ1 = αvβ1 (Homo sapiens, UniProt P05556+P06756); assay: Solid Phase Integrin αvβ1 Assay; type: binding
Outline: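 Wells coated with 1 µg/mL recombinant TGFb1-LAP and blocked with 2% BSA/TBST, 1 mM MnCl2; αvβ1 (added at 0.2 µg/mL) and compound incubated 90 min at room temperature. Bound integrin detected by streptavidin-HRP (20 min) and TMB after Mn-containing washes; IC50 by four-parameter logistic fit.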

Sequence of αvβ1 (P06756 31-992 limits assumed): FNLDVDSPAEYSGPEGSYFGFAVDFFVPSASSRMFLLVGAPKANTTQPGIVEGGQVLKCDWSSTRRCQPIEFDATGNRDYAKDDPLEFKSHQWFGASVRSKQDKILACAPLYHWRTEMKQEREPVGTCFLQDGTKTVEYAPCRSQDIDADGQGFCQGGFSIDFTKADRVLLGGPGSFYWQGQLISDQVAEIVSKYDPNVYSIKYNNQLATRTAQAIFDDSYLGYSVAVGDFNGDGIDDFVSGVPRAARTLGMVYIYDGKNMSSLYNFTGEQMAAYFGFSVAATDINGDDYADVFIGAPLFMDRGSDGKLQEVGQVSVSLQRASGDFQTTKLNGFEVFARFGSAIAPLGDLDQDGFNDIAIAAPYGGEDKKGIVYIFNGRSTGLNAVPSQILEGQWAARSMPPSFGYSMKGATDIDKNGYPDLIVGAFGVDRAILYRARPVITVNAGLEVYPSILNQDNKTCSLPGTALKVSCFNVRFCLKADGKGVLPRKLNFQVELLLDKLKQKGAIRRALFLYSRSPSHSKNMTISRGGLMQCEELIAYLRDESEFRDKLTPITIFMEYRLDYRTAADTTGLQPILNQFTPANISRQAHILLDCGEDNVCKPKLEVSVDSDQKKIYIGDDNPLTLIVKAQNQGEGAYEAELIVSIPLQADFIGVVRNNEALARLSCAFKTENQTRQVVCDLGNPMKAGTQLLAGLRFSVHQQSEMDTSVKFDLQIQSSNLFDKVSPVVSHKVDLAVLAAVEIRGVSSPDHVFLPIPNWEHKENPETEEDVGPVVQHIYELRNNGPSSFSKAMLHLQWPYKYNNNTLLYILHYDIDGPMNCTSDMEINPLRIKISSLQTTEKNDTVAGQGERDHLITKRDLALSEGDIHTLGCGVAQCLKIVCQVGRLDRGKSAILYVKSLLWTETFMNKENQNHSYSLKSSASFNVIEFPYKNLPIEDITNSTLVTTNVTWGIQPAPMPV
Sequence of αvβ1 (P05556 21-728 limits assumed): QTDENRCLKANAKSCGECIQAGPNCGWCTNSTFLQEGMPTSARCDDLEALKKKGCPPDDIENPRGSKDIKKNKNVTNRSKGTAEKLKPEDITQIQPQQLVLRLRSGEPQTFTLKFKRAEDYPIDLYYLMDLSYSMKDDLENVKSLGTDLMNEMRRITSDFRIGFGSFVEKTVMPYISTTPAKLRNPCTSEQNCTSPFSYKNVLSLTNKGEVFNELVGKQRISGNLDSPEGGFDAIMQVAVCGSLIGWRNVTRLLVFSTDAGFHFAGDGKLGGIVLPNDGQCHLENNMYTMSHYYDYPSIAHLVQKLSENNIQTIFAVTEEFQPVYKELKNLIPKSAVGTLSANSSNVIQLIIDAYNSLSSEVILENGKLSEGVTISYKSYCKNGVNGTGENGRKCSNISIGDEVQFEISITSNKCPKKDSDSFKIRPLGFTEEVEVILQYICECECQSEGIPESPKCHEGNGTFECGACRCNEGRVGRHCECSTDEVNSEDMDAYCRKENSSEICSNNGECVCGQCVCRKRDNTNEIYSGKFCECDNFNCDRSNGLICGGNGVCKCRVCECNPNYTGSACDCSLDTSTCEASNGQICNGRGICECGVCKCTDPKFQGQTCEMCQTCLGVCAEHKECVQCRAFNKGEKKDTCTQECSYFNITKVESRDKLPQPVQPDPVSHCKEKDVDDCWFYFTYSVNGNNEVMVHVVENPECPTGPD
Sequence of αvβ6 (P06756 31-992 limits assumed): as the sequence (P06756 31-992 limits assumed) above
Sequence of αvβ6 (P18564 22-707 limits assumed): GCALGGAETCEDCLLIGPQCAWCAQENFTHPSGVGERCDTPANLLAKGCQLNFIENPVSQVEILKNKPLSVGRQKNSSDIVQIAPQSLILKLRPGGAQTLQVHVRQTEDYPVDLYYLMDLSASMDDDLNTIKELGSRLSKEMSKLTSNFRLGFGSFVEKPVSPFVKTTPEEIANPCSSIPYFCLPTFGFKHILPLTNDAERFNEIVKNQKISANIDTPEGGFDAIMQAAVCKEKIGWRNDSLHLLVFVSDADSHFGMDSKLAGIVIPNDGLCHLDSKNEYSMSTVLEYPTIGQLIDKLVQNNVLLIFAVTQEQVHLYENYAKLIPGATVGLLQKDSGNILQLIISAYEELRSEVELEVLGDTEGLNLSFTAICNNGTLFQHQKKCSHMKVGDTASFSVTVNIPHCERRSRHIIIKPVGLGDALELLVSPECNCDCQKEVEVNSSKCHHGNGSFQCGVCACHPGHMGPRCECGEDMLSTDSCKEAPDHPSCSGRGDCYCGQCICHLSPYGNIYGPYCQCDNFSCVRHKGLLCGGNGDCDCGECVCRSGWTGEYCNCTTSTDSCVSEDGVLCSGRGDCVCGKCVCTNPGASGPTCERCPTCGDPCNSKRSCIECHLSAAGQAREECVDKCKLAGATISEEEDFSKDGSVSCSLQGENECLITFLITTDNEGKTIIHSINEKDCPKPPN

IC50 (αvβ6) [nM] | IC50 (αvβ1) [nM] | Compound
< 100 | 100 to 1000 | O=C(O)[C@@H](CCO[C@@H]1CCCN(CCCc2ccc3c(n2)NCCC3)C1)Nc1ncnc2cc(C(F)(F)F)ccc12 [Compound 497]
< 100 | < 100 | O=C(O)[C@@H](CCO[C@@H]1CCCN(CCCc2ccc3c(n2)NCCC3)C1)Nc1ncnc2sccc12 [Compound 498]
< 100 | > 1000 | O=C(O)[C@H](CCO[C@@H]1CCCN(CCCc2ccc3c(n2)NCCC3)C1)c1ccc(F)c(-c2ccccc2)c1 [Compound 499]
100 to 1000 | > 1000 | O=C(O)[C@H](CCO[C@@H]1CCCN(CCCc2ccc3c(n2)NCCC3)C1)c1cccc2c1cnn2CC1CC1 [Compound 500]
100 to 1000 | > 1000 | O=C(O)[C@H](CCO[C@@H]1CCCN(CCCc2ccc3c(n2)NCCC3)C1)c1cccc2nn(CC3CC3)cc12 [Compound 501]
< 100 | < 100 | Cc1csc2ncnc(N[C@H](CCO[C@@H]3CCCN(CCCc4ccc5c(n4)NCCC5)C3)C(=O)O)c12 [Compound 502]
100 to 1000 | > 1000 | O=C(O)[C@@H](CCO[C@@H]1CCCN(CCCc2ccc3c(n2)NCCC3)C1)Nc1ncnc2cc(F)c(F)cc12 [Compound 503]
< 100 | < 100 | O=C(O)C[C@@H](CO[C@@H]1CCCN(CCCc2ccc3c(n2)NCCC3)C1)c1cccc(N2CCCC2=O)c1 [Compound 504]
> 1000 | > 1000 | O=C(O)C(CCO[C@@H]1CCCN(CCCc2ccc3c(n2)NCCC3)C1)c1ccnc(-c2ccccc2)c1 (stereo partly shown) [Compound 505]
< 100 | < 100 | O=C(O)C[C@@H](CO[C@@H]1CCCN(CCCc2ccc3c(n2)NCCC3)C1)c1cccc([C@@H]2CCOC2)c1 [Compound 506]
< 100 | < 100 | O=C(O)C[C@@H](CO[C@@H]1CCCN(CCCc2ccc3c(n2)NCCC3)C1)c1cccc([C@H]2CCOC2)c1 [Compound 507]
< 100 | < 100 | O=C(O)C[C@@H](CO[C@@H]1CCCN(CCCc2ccc3c(n2)NCCC3)C1)c1cc(C2CC2)ccc1F [Compound 508]
< 100 | < 100 | Cc1c[s+]([O-])c2ncnc(N[C@@H](CCO[C@@H]3CCCN(CCCc4ccc5c(n4)NCCC5)C3)C(=O)O)c12 (stereo partly shown) [Compound 509]
> 1000 | > 1000 | Cc1c[s+]([O-])c2ncnc(N[C@H](CCO[C@@H]3CCCN(CCCc4ccc5c(n4)NCCC5)C3)C(=O)O)c12 (stereo partly shown) [Compound 510]
< 100 | < 100 | O=C(O)[C@@H](CCO[C@@H]1CCCN(CCCc2ccc3c(n2)NCCC3)C1)Nc1ncnc2ccsc12 [Compound 511]
> 1000 | > 1000 | O=C(N[C@H](CCO[C@@H]1CCCN(CCCc2ccc3c(n2)NCCC3)C1)C(=O)O)c1c(F)cc(N2CCOCC2)cc1F [Compound 512]
< 100 | < 100 | O=C(O)C[C@@H](CO[C@@H]1CCCN(CCCc2ccc3c(n2)NCCC3)C1)c1cncc(C2CC2)c1 [Compound 513]
< 100 | < 100 | O=C(O)C[C@@H](CO[C@@H]1CCCN(CCCc2ccc3c(n2)NCCC3)C1)c1ccnc(C2CC2)c1 [Compound 514]
< 100 | 100 to 1000 | O=C(O)C[C@@H](CO[C@@H]1CCCN(CCCc2ccc3c(n2)NCCC3)C1)c1cccc(-n2cccn2)c1 [Compound 515]
< 100 | < 100 | O=C(O)[C@H](CCO[C@@H]1CCCN(CCCc2ccc3c(n2)NCCC3)C1)c1ccc(C2CC2)cc1 [Compound 516]
< 100 | < 100 | O=C(NC[C@H](C(=O)O)c1cccc(-c2ccncc2)c1)[C@@H]1CCCN(CCCc2ccc3c(n2)NCCC3)C1 [Compound 517]
< 100 | < 100 | O=C(NC[C@H](C(=O)O)c1cccc(-c2cccc(C(F)(F)F)c2)c1)[C@@H]1CCCN(CCCc2ccc3c(n2)NCCC3)C1 [Compound 518]
< 100 | < 100 | O=C(O)C[C@@H](CO[C@@H]1CCCN(CCCc2ccc3c(n2)NCCC3)C1)c1cc(F)cc(C2CC2)c1 [Compound 519]
